Measured values taken from patent US11827677B2, “Antimicrobial peptide ID13, preparation method and use thereof” (Feed Research Institute, Chinese Academy of Agricultural …, priority 2019, dated 2023).
“And” between values parts separate entries of the source, which are not always exact repeats. Equal entries are not always repeated. Where two headings read alike, the source gives them in different places. Bridge positions count the residues as written; N and C are the ends. Peptide text beside a SMILES is read from it.

Experiments:
[1] = tested on: Staphylococcus aureus ATCC 43300; test: MIC by trace broth dilution method; type: cell-based; conditions: 16-18 h
Description: (§1) The minimum inhibition concentration (MIC) of ID13 against pathogens was measured using a trace broth dilution method. The freeze-dried powder of antimicrobial peptide ID13 obtained in Example 6 was used to prepare a solution of antimicrobial peptide ID13 with a concentration of 1280 μg/mL and a solution of vancomycin, respectively with sterile normal saline, and diluted with a two-fold ratio to a final concentration of 1.25 μg/mL. The antimicrobial peptide ID13 solutions and vancomycin solutions of different concentrations were added to a sterile 96-well cell culture plate, with 10 μL per well, three parallels for each sample, and the same amount (10 μL) of sterile saline was used as a negative control, to prepare MIC plates. Strains were cultured in MH liquid medium with shaking at 37° C. until its OD600 nm=0.4 and diluted to 1×10^5 CFU/ml. 90 μL of cell suspension was added into each well of the prepared sample well of the MIC plate and incubated at 37° C. for 16-18 h.

[2] = tested on: Staphylococcus aureus CVCC 546; test: MIC by trace broth dilution method; type: cell-based; conditions: 16-18 h
Description: as §1

[3] = tested on: Streptococcus suis CVCC 3928; test: MIC by trace broth dilution method; type: cell-based; conditions: 16-18 h
Description: as §1

MRSA ATCC 43300 = conditions: cited from earlier work
[4] = tested on: Staphylococcus Epidermidis ATCC 12228; test: MIC by trace broth dilution method; type: cell-based
Description: as §1

[5] = tested on: Streptococcus pneumoniae CVCC 2350; test: MIC by trace broth dilution method; type: cell-based
Description: as §1

Gram-positive bacteria = test: Antimicrobial activity (MIC) summary over tested strains; type: cell-based; conditions: range over the tested Gram-positive strains
Description: as §1

mice red blood cells = test: Hemolysis assay; type: cell-based, ICR mice; conditions: concentration of 1-256 μg/mL; 37° C., 1 h
Description: The freeze-dried powder of antimicrobial peptide ID13 obtained in Example 6 was used for the test. The antimicrobial peptide ID13 was dissolved in sterile physiological saline to prepare a stock solution of a concentration of 512 μg/mL, and diluted with a 2-fold ratio to a final concentration of 2 μg/mL. The blood from the eyeballs of 6-week-old SPF female ICR mice was taken and collected with a heparin sodium anticoagulation tube. The collected blood was centrifuged at 4° C., 1500 rpm for 10 min. The red blood cells were washed three times with 10 mM PBS (pH 7.3) until the supernatant was colorless and transparent, and an 8% red blood cell suspension was prepared. 100 μL of the red blood cell suspension and antimicrobial peptide ID13 solution were added to 96-well plate, incubated at 37° C. for 1 h, and centrifuged at 1500 rpm for 5 min. The resulted supernatant was transferred to ELISA plate to detect the UV absorbance at 540 nm. Values of 0% and 100% hemolysis control tests were set up with physiological saline and 0.1% TRITON X-100 detergent, respectively. The formula for calculating the degree of hemolysis was as follows (Jung, Park, etc., 2007): Hemolysis (%)=[(Abs540 nm antimicrobial peptide ID13—Abs540 nm physiological saline)/(Abs540 nm 0.1% TRITON X-100 detergent—Abs540 nm physiological saline)]×100%.

RAW264.7 cells = test: Cytotoxicity assay (MTT); type: cell-based; conditions: 256 μg/mL, 24 hours incubation
Description: The RAW264.7 cells were cultured in DMEM complete medium with 37° C., 5% CO2 and saturated humidity conditions. The cells were pipetted and re-suspended in DMEM complete medium. Then, the cells were seeded in a 96-well plate at a density of 2.5×10^5 cells/mL, 100 μL per well, and 3 replicates were set. After 24 h, the medium was removed, and 100 μL of 1, 2, 4, 8, 16, 32, 64, 128, and 256 μg/mL ID13 were added to each well according to a concentration gradient. Control wells were added with the same amount of PBS solution. After 24 hours incubation, the medium was removed; the wells were washed twice with PBS, and 100 μL of MTT at a concentration of 5 mg/mL was added to each well (which were operated in dark). The 96-well plate was moved to an incubator and continued to be incubated for 4 h. After discarding the MTT solution, 150 μL DMSO was added into each well, and then the plate was cultured with shaking for 10 minutes. When crystals at the well bottom were completely dissolved, the absorbance values were measured at a wavelength of 570 nm. The cell survival rate was calculated according to the following formula: survival rate (%)=OD value of the treatment group/OD value of the control group×100% (Jiao et al., 2015).

CC[C@H](C)[C@@H]1NC(=O)[C@@H]2CSSC[C@@H](C(=O)N[C@@H](CCCNC(=N)N)C(=O)N[C@@H](CCCCN)C(=O)O)NC(=O)[C@H](CC(N)=O)NC(=O)[C@@H]3CSSC[C@H](NC(=O)[C@H](C)NC(=O)[C@H](C)NC(=O)[C@H](Cc4c[nH]cn4)NC(=O)CNC(=O)[C@H](C(C)C)NC(=O)[C@H](CCCCN)NC(=O)[C@H](Cc4ccccc4)NC(=O)[C@@H]4CCCN4C(=O)[C@H](CO)NC(=O)[C@H](CC(C)C)NC(=O)[C@H](CC(C)C)NC(=O)[C@H](CC(=O)O)NC(=O)[C@@H](NC(=O)[C@@H](NC(=O)[C@H](C)N)[C@@H](C)O)CSSC[C@H](NC(=O)[C@H](Cc4c[nH]c5ccccc45)NC(=O)CNC(=O)CNC(=O)[C@H](CCCNC(=N)N)NC(=O)[C@H](CCCCN)NC(=O)CNC(=O)[C@H](CCCNC(=N)N)NC(=O)[C@H](C)NC1=O)C(=O)N[C@@H](CC(=O)O)C(=O)N[C@@H](CCCCN)C(=O)N[C@@H](CCCNC(=N)N)C(=O)N[C@@H](C)C(=O)N[C@@H](C(C)C)C(=O)N3)C(=O)N[C@@H](C)C(=O)N[C@@H](C)C(=O)N[C@@H](Cc1c[nH]cn1)C(=O)N2 [DLP4] (H-ATCDLLSPFKVGHAACAAHCIARGKRGGWCDKRAVCNCRK-OH; disulfide 3-30, 16-36, 20-38; N-terminus and C-terminus assumed)
MIC ([1]; 37° C.): 16 µg/mL | MIC ([2]; 37° C.): 16 µg/mL | MIC ([3]; 37° C.): 16 µg/mL | drug tolerance such as increased MIC (MRSA ATCC 43300; MRSA ATCC 43300 continuously passaged for 30 days under the effective dose): no drug tolerance

CC[C@H](C)[C@@H]1NC(=O)[C@@H]2CSSC[C@@H](C(=O)N[C@@H](CCCNC(=N)N)C(=O)N[C@@H](CCCCN)C(=O)O)NC(=O)[C@H](CC(N)=O)NC(=O)[C@@H]3CSSC[C@H](NC(=O)[C@H](C)NC(=O)[C@H](C)NC(=O)[C@H](Cc4c[nH]cn4)NC(=O)CNC(=O)[C@H](C(C)C)NC(=O)[C@H](CCCCN)NC(=O)[C@H](Cc4ccccc4)NC(=O)[C@@H]4CCCN4C(=O)[C@H](CO)NC(=O)[C@H](CC(C)C)NC(=O)[C@H](CC(C)C)NC(=O)[C@H](CC(=O)O)NC(=O)[C@@H](NC(=O)[C@@H](NC(=O)[C@H](C)N)[C@@H](C)O)CSSC[C@H](NC(=O)[C@H](Cc4c[nH]c5ccccc45)NC(=O)CNC(=O)CNC(=O)[C@H](CCCNC(=N)N)NC(=O)[C@H](CCCCN)NC(=O)CNC(=O)[C@H](CCCNC(=N)N)NC(=O)[C@H](C)NC1=O)C(=O)N[C@@H](CC(=O)O)C(=O)NCC(=O)N[C@@H](CCCNC(=N)N)C(=O)N[C@@H](C)C(=O)N[C@@H](C(C)C)C(=O)N3)C(=O)N[C@@H](C)C(=O)N[C@@H](C)C(=O)N[C@@H](Cc1c[nH]cn1)C(=O)N2 [ID13] (H-ATCDLLSPFKVGHAACAAHCIARGKRGGWCDGRAVCNCRK-OH; disulfide 3-30, 16-36, 20-38 (inferred); N-terminus and C-terminus assumed)
MIC ([4]; Staphylococcus Epidermidis ATCC 12228, 37° C., 16-18 h): 1.91 μM and 8 μg/mL | MIC ([1]; 37° C.): 4 µg/mL | MIC ([1]; 37° C., read-out: MIC): 0.95 µM | MIC ([2]; 37° C.): 4 µg/mL | MIC ([2]; 37° C., read-out: MIC): 0.95 µM | MIC ([5]; Streptococcus pneumoniae CVCC 2350, 37° C., 16-18 h): 0.95 μM and 4 μg/mL | MIC ([3]; 37° C.): 4 µg/mL | MIC ([3]; 37° C., read-out: MIC): 0.95 µM | antimicrobial activity against Gram-positive bacteria (MIC range) (Gram-positive bacteria): 0.95 to 1.91 µM | hemolysis to mice red blood cells (mice red blood cells): little hemolysis | cell survival rate (RAW264.7 cells): 72%

CN[C@H](CC(C)C)C(=O)N[C@H]1C(=O)N[C@@H](CC(N)=O)C(=O)N[C@H]2C(=O)N[C@H]3C(=O)N[C@H](C(=O)N[C@H](C(=O)O)c4cc(O)cc(O)c4-c4cc3ccc4O)[C@H](O)c3ccc(c(Cl)c3)Oc3cc2cc(c3O[C@@H]2O[C@H](CO)[C@@H](O)[C@H](O)[C@H]2O[C@H]2C[C@](C)(N)[C@H](O)[C@H](C)O2)Oc2ccc(cc2Cl)[C@H]1O [Vancomycin]
MIC ([4]; Staphylococcus epidermidis, ATCC12228): 0.67 µM and 1 µg/mL | MIC ([1]; ATCC43300, 37° C., read-out: MIC): 0.67 µM and 1 µg/mL | MIC ([2]; CVCC546, 37° C., read-out: MIC): 0.67 µM and 1 µg/mL | MIC ([5]; Streptococcus pneumoniae, CVCC2350): 0.34 µM and 0.5 µg/mL | MIC ([3]; CVCC3928, 37° C., read-out: MIC): 0.17 µM and 0.25 µg/mL

CO/N=C(\C(=O)N[C@@H]1C(=O)N2C(C(=O)O)=C(CSc3nc(=O)c(=O)[nH]n3C)CS[C@H]12)c1csc(N)n1 [ceftriaxone]
increase of MIC value (MRSA ATCC 43300; MRSA ATCC 43300 continuously passaged for 30 days): 256 times
